Reference: the Deep4Chem optical property database

Assay: solvent given as SMILES

COc1cc(OC)c2c(c1)C(=O)c1ccccc1-2
fluorescence lifetime (in C1CCCCC1): 5.8 ns | fluorescence lifetime (in CC#N): 0.9 ns

Cc1ccc(C2CC(c3ccc(O)cc3)=NN2c2ccc(S(N)(=O)=O)cc2)cc1 (stereo unspecified)
fluorescence lifetime (in C1CCOC1): 2.4 ns | fluorescence lifetime (in C1COCCO1): 2.41 ns | fluorescence lifetime (in CC#N): 2.32 ns | fluorescence lifetime (in CC(C)O): 2.11 ns | fluorescence lifetime (in CCO): 2.04 ns | fluorescence lifetime (in CCOC(C)=O): 2.41 ns | fluorescence lifetime (in CN(C)C=O): 2.59 ns | fluorescence lifetime (in CO): 1.66 ns | fluorescence lifetime (in CS(C)=O): 2.56 ns | fluorescence lifetime (in O): 3.35 ns

O=P1(c2ccccc2)C(c2ccc(C(F)(F)F)cc2)=Cc2cc3ccccc3cc21 (stereo unspecified)
fluorescence lifetime (in ClCCl): 3 ns

CCCCCCCCCCCCCCCCCCN1C(=O)c2ccc3c4ccc5c6c(ccc(c7ccc(c2c37)C1=O)c64)C(=O)NC5=O
fluorescence lifetime (in CN(C)C=O): 3 ns

c1ccc2c(c1)CCc1ccccc1N2c1c2ccccc2cc2ccccc12
fluorescence lifetime (in Cc1ccccc1): 41 ns

CCCCCCC(CCCCCC)N1C(=O)c2cccc3c(-c4ccc(OC)c5ccccc45)ccc(c23)C1=O
fluorescence lifetime (in CCCCCC): 1.7 ns | fluorescence lifetime (in CCCCCCCCCCCCCC): 1.83 ns | fluorescence lifetime (in CCCCCCCCCCCO): 4.85 ns | fluorescence lifetime (in CCCCO): 1.8 ns | fluorescence lifetime (in CN(C)C=O): 3.85 ns | fluorescence lifetime (in Cc1ccccc1): 1.53 ns | fluorescence lifetime (in ClC(Cl)Cl): 4.07 ns

N#Cc1c(-c2ccc(N(c3ccccc3)c3ccccc3)cc2)c(C#N)c(-c2ccc(N(c3ccccc3)c3ccccc3)cc2)c(C#N)c1-c1ccc(N(c2ccccc2)c2ccccc2)cc1
fluorescence lifetime (in O=P(c1ccccc1)(c1ccccc1)c1ccccc1Oc1ccccc1P(=O)(c1ccccc1)c1ccccc1): 6.21 ns

O=C(c1ccc(C(=O)c2ccc(N3c4ccccc4Oc4ccccc43)cc2)cc1)c1ccc(N2c3ccccc3Oc3ccccc32)cc1
fluorescence lifetime (in c1cc(-c2cccc(-n3c4ccccc4c4ccccc43)c2)cc(-n2c3ccccc3c3ccccc32)c1): 26 ns

CC(=O)Nc1ccc2c3c(cccc13)C(=O)c1ccccc1-2
fluorescence lifetime (in CC#N): 10.3 ns | fluorescence lifetime (in CC(C)=O): 9.7 ns | fluorescence lifetime (in CC(C)O): 9.3 ns | fluorescence lifetime (in CCCCOCCCC): 1.9 ns | fluorescence lifetime (in CCOC(C)=O): 6.6 ns | fluorescence lifetime (in CCOCC): 2.6 ns | fluorescence lifetime (in CO): 8.3 ns | fluorescence lifetime (in Cc1ccccc1): 2.8 ns | fluorescence lifetime (in Clc1ccccc1): 5.9 ns | fluorescence lifetime (in N#Cc1ccccc1): 9.8 ns | fluorescence lifetime (in O=C1CCCCC1): 8.3 ns

O=[N+]([O-])c1ccc(/C=C/c2nc3c4ccccc4c4ccccc4c3o2)cc1
fluorescence lifetime (in CC#N): 3.01 ns

O=c1oc2ccccc2cc1/C=C/c1ccccc1
fluorescence lifetime (in CC#N): 2.48 ns

C[Si](C)(C)c1ccc(-c2ccc(-c3ccc(-c4ccc(-c5ccc([Si](C)(C)C)s5)cc4)c4nsnc34)cc2)s1
fluorescence lifetime (in C1CCOC1): 4.4 ns

CCCCC(CC)CN1C(=O)c2cc(Oc3ccc(C(C)(C)C)cc3)c3c4c(Oc5ccc(OC)cc5)cc5c6c(cc(Oc7ccc(OC)cc7)c(c7c(Oc8ccc(C(C)(C)C)cc8)cc(c2c37)C1=O)c64)C(=O)N(c1c(C(C)C)cccc1C(C)C)C5=O (stereo unspecified)
fluorescence lifetime (in Cc1ccccc1): 5.25 ns

Cc1ccc(-c2ccc(/C=C/c3cccn3C)cn2)nc1
fluorescence lifetime (in C1COCCO1): 0.59 ns | fluorescence lifetime (in CC#N): 0.51 ns | fluorescence lifetime (in CCCCCC): 0.86 ns | fluorescence lifetime (in CCO): 0.92 ns | fluorescence lifetime (in CN(C)C=O): 0.65 ns | fluorescence lifetime (in CO): 1 ns | fluorescence lifetime (in CS(C)=O): 0.64 ns | fluorescence lifetime (in Cc1ccccc1): 0.56 ns | fluorescence lifetime (in ClC(Cl)Cl): 0.62 ns | fluorescence lifetime (in c1ccccc1): 0.51 ns

COc1ccc(C(=Cc2ccc(C=O)cc2)c2ccc(OC)cc2)cc1
fluorescence lifetime (in C1CCOC1): 6.7 ns

Cc1cc2nc3[nH]c(=O)[nH]c(=O)c3nc2cc1C
fluorescence lifetime (in CC#N): 0.64 ns

CCOC(=O)COc1ccc(/C=C/c2cc(C)c3n2[B-](F)(F)[N+]2=C(c4[nH]c(C)cc4C)c4ccccc4C2=C3)cc1
fluorescence lifetime (in ClCCl): 5.14 ns

COC(=O)c1cc(=O)n(C)c2cc(-c3ccc(Oc4ccccc4)cc3)sc12
fluorescence lifetime (in ClCCl): 2.83 ns

COc1ccc(N(c2ccccc2)c2ccccc2)cc1
fluorescence lifetime (in Cc1ccccc1): 1.89 ns

CN(C)c1ccc(-c2nc3c(c4c2-c2ccccc2CC4)-c2ccccc2CC3)cc1
fluorescence lifetime (in C1CCOC1): 0.91 ns | fluorescence lifetime (in CC#N): 1.19 ns | fluorescence lifetime (in CCOC(C)=O): 0.75 ns | fluorescence lifetime (in CS(C)=O): 2.13 ns | fluorescence lifetime (in Cc1ccccc1): 0.27 ns | fluorescence lifetime (in ClCCl): 0.8 ns

CCCCC(CC)CN1C(=O)C2=C(c3ccc(-c4ccc(C5=C6C(C)=CC(C)=[N+]6[B-](F)(F)n6c(C)cc(C)c65)cc4)s3)N(CC(CC)CCCC)C(=O)C2=C1c1ccc(-c2ccc(C3=C4C(C)=CC(C)=[N+]4[B-](F)(F)n4c(C)cc(C)c43)cc2)s1 (stereo unspecified)
fluorescence lifetime (in Cc1ccccc1): 3.36 ns
